What was measured:
[1] = test system: androgen-responsive tissues (prostate, seminal vesicles and levator ani muscle) of castrated rats; assay: Androgenic and anabolic activity in castrated rat model, 14 days of administration; conditions: for prostate, seminal vesicle and levator ani muscle weights: 14 days (FIG. 3); for prostate and seminal vesicle weights / Levator Ani organ weight / Prostate organ weight / Seminal Vesicles organ weight: 14 days; for prostate and seminal vesicle weights: % of that observed in intact animals (FIG. 1); for Levator Ani organ weight / Prostate organ weight / Seminal Vesicles organ weight: mean ± S.D.
[2] = Pharmacokinetic studies (in vivo clearance); conditions: comparison among N-1 to N-4
[3] = compared with testosterone propionate (FIG. 3)

With `C[C@](O)(COc1ccc(Cl)cc1)C(=O)Nc1ccc(C#N)c(C(F)(F)F)c1` [Compound 6] as the compound, how does the “prostate, seminal vesicle and levator ani muscle weights” value ([1]; 0.1-1.0 mg/day) read?
Its value is “dose-dependent increases”.

What about the “potency and intrinsic activity in increasing the weight of levator ani muscle” value [1, 3] of the same compound?
Its value is “greater potency and intrinsic activity”.

And the “potency and intrinsic activity in increasing the weights of prostate and seminal vesicle” value [1, 3]?
The value was “lower potency and intrinsic activity”.

What about the “levator ani muscle weight” value ([1]; dose as low as 0.3 mg/day, versus intact animals (FIG. 3)) of the same compound?
Its value is “same level as that of intact animals”.

Which “weight of the levator ani muscle” value ([1]; 1 mg/day for 14 days) does the source give for `C[C@](O)(COc1ccc(C#N)cc1)C(=O)Nc1ccc(C#N)c(C(F)(F)F)c1` [Compound N-4] here?
The value was 142%±17%.

And the “in vivo pharmacologic activity” value ([1]; 1 mg/day for 14 days, comparison among N-1 to N-4)?
The value was “greatest activity”.

And the in vivo clearance [2]?
Its in vivo clearance is “lowest in vivo clearance”.

With `C[C@](O)(COc1ccc(Cl)cc1)C(=O)Nc1ccc([N+](=O)[O-])c(C(F)(F)F)c1` [Compound 2] as the compound, how does the “levator ani muscle weight” value ([1]; 0.1-1.0 mg/day, 14 days (FIG. 1), versus intact animals) read?
Its value is “same level as that of intact animals”.

What about the “prostate and seminal vesicle weights” value ([1]; 0.1-1.0 mg/day) of the same compound?
The value was “less than 40%”.

With `C[C@](O)(COc1ccc(C#N)cc1)C(=O)Nc1ccc([N+](=O)[O-])c(C(F)(F)F)c1` [Compound N-2] as the compound, how does the “weight of the levator ani muscle” value ([1]; 1 mg/day for 14 days) read?
Its value is 119%±16%.

With `C[C@](O)(COc1ccc([N+](=O)[O-])cc1)C(=O)Nc1ccc([N+](=O)[O-])c(C(F)(F)F)c1` [Compound N-1] as the compound, how does the “weight of the levator ani muscle” value ([1]; 1 mg/day for 14 days) read?
The value was 105%±13%.

With `C[C@](O)(COc1ccc(I)cc1)C(=O)Nc1ccc([N+](=O)[O-])c(C(F)(F)F)c1` [Compound 4] as the compound, how does the “prostate and seminal vesicle weights” value ([1]; 0.1-1.0 mg/day) read?
The value was “less than 20%”.

For `C[C@](O)(COc1ccc(Br)cc1)C(=O)Nc1ccc([N+](=O)[O-])c(C(F)(F)F)c1` [Compound 3], which “prostate and seminal vesicle weights” value ([1]; 0.1-1.0 mg/day) is on record?
Its value is “less than 20%”.

With `C[C@](O)(COc1ccc([N+](=O)[O-])cc1)C(=O)Nc1ccc(C#N)c(C(F)(F)F)c1` [Compound N-3] as the compound, how does the “weight of the levator ani muscle” value ([1]; 1 mg/day for 14 days) read?
The value was 130%±5%.

For `CCC(=O)O[C@H]1CC[C@H]2[C@@H]3CCC4=CC(=O)CC[C@]4(C)[C@H]3CC[C@]12C` [testosterone propionate, reference compound], which “prostate, seminal vesicle and levator ani muscle weights” value ([1]; 0.1-1.0 mg/day) is on record?
Its value is “dose-dependent manner”.

For `C[C@](O)(COc1ccc(F)cc1)C(=O)Nc1ccc(C#N)c(C(F)(F)F)c1` [Compound 5], which “Levator Ani organ weight” value ([1]; 0.10 mg/day) is on record?
Its value is 54.9 ± 5.77 % of intact.

What about the Prostate organ weight ([1]; 0.10 mg/day) of the same compound?
The Prostate organ weight was 6.4 ± 0.82 % of intact.

What about the “Seminal Vesicles organ weight” value ([1]; 0.10 mg/day) of the same compound?
The value was 8.8 ± 1.18 % of intact.

And the “Levator Ani organ weight” value ([1]; 0.50 mg/day)?
The value was 55.0 ± 9.23 % of intact.

And the Prostate organ weight ([1]; 0.50 mg/day)?
The Prostate organ weight was 6.2 ± 0.56 % of intact.

What about the “Seminal Vesicles organ weight” value ([1]; 0.50 mg/day) of the same compound?
The value was 9.3 ± 1.57 % of intact.

What about the “Levator Ani organ weight” value ([1]; 0.75 mg/day) of the same compound?
The value was 68.9 ± 8.46 % of intact.

What about the Prostate organ weight ([1]; 0.75 mg/day) of the same compound?
The Prostate organ weight was 7.6 ± 0.74 % of intact.

What about the “Seminal Vesicles organ weight” value ([1]; 0.75 mg/day) of the same compound?
The value was 9.8 ± 3.65 % of intact.

And the “Levator Ani organ weight” value ([1]; 1.00 mg/day)?
Its value is 75.2±9.51 % of intact.

What about the Prostate organ weight ([1]; 1.00 mg/day) of the same compound?
Its Prostate organ weight is 8.7±1.39 % of intact.

And the “Seminal Vesicles organ weight” value ([1]; 1.00 mg/day)?
The value was 10.7±0.91 % of intact.

Which “prostate and seminal vesicle weights” value ([1]; 0.1-1.0 mg/day) does the source give for `C[C@](O)(COc1ccc(F)cc1)C(=O)Nc1ccc([N+](=O)[O-])c(C(F)(F)F)c1` [Compound 1] here?
Its value is “less than 20%”.

Source: patent publication US20050038110A1, “Selective androgen receptor modulators and methods of use thereof” (priority 2000, published 2005)
